Results: ChEMBL document CHEMBL1201862, “PubChem BioAssay data set” (2004)
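Protocol summary: plate cells (96-well), add compound at 5 concentrations, incubate 48 h, interpolate endpoints linearly. Abbreviation: GI50, concentration required for 50% inhibition of growth.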 Activity calls are given as the source filed them. Cut-off read from the data, not from the text of the source: active = GI50 up to about 1.1 µM and inactive = higher.

Experiments:
Assay in all cases: NCI anticancer screen, dose series, 48 h
[1] = test system: NCI-H522
[2] = test system: UACC-257
[3] = test system: SF-268
[4] = test system: HOP-62
[5] = test system: TK-10
[6] = test system: SN12C
[7] = test system: U-251
[8] = test system: DU-145
[9] = test system: SW-620
[10] = test system: SK-MEL-5
[11] = test system: Hs-578T
[12] = test system: HT-29
[13] = test system: M14
[14] = test system: HOP-92
[15] = test system: MDA-MB-435
[16] = test system: RPMI-8226
[17] = test system: NCI/ADR-RES
[18] = test system: KM12
[19] = test system: RXF 393
[20] = test system: SNB-78

| Compound | GI50 [1] | GI50 [2] | GI50 [3] | GI50 [4] | GI50 [5] | GI50 [6] | GI50 [7] | GI50 [8] | GI50 [9] | GI50 [10] | GI50 [11] | GI50 [12] | GI50 [13] | GI50 [14] | GI50 [15] | GI50 [16] | GI50 [17] | GI50 [18] | GI50 [19] | GI50 [20] |
| --- | --- | --- | --- | --- | --- | --- | --- | --- | --- | --- | --- | --- | --- | --- | --- | --- | --- | --- | --- | --- |
| C=CC1OC(CCCOC(=O)C(C)(C)C)O[C@@H]1CC (stereo partly specified) | > 100 µM (inactive) | > 100 µM (inactive) | > 100 µM (inactive) | > 100 µM (inactive) | > 100 µM (inactive) | > 100 µM (inactive) | > 100 µM (inactive) | > 100 µM (inactive) | > 100 µM (inactive) | > 100 µM (inactive) | > 100 µM (inactive) | > 100 µM (inactive) | > 100 µM (inactive) | > 100 µM (inactive) | > 100 µM (inactive) | > 100 µM (inactive) | > 100 µM (inactive) | > 100 µM (inactive) |  |  |
| O=S(=O)(c1ccccc1)C1CC(c2nc3ccccc3[nH]2)=NO1 (stereo unspecified) | 28.6 µM (inactive) | > 100 µM (inactive) | > 100 µM (inactive) | > 100 µM (inactive) | 74.8 µM (inactive) | > 100 µM (inactive) | > 100 µM (inactive) | > 100 µM (inactive) | 43.8 µM (inactive) | 70.3 µM (inactive) | > 100 µM (inactive) | > 100 µM (inactive) |  | 80.4 µM (inactive) | 72.3 µM (inactive) | 28.1 µM (inactive) | > 100 µM (inactive) |  | 83 µM (inactive) |  |
| COc1cc(C2S/C(=C/c3ccccc3)C(=O)N2c2cccc(NC(C)=O)c2)cc(OC)c1OC (stereo unspecified) | 13.5 µM (inactive) | 66.2 µM (inactive) | 24.1 µM (inactive) | 67 µM (inactive) | 80.5 µM (inactive) | 45.2 µM (inactive) | 17.6 µM (inactive) |  |  | 35.2 µM (inactive) | 15.3 µM (inactive) | 21.1 µM (inactive) | 34.4 µM (inactive) | 16.4 µM (inactive) | 18.3 µM (inactive) |  | 27.9 µM (inactive) | 27.2 µM (inactive) | 28.8 µM (inactive) |  |
| CC(C)=CC1CC(=O)C1(C)Sc1ccccc1 (stereo unspecified) | 24 µM (inactive) | 45.5 µM (inactive) | 51.3 µM (inactive) | > 100 µM (inactive) | > 100 µM (inactive) | 71.8 µM (inactive) | 67 µM (inactive) |  |  | 33.3 µM (inactive) |  | 27.4 µM (inactive) | 96.4 µM (inactive) | 29.9 µM (inactive) |  | 20.6 µM (inactive) |  | > 100 µM (inactive) | 26.2 µM (inactive) | 60.1 µM (inactive) |
| OC(c1cccnc1Cl)c1nc2ccccc2c2ccnc(Cl)c12 (stereo unspecified) | 1.05 µM (active) | > 100 µM (inactive) | 6.21 µM (inactive) | 2.15 µM (inactive) | 24.3 µM (inactive) | 3.6 µM (inactive) | 4.18 µM (inactive) | 23 µM (inactive) | 3.06 µM (inactive) | 3.46 µM (inactive) | 2.72 µM (inactive) | 4.6 µM (inactive) | 2.08 µM (inactive) | 18.7 µM (inactive) | 0.628 µM (active) | 2.34 µM (inactive) | 2.88 µM (inactive) | 2.94 µM (inactive) | 4.12 µM (inactive) |  |
| OC1CCSc2ccccc21 (stereo unspecified) | > 100 µM (inactive) |  | > 100 µM (inactive) | > 100 µM (inactive) |  | > 100 µM (inactive) | > 100 µM (inactive) |  | > 100 µM (inactive) | > 100 µM (inactive) |  | > 100 µM (inactive) | > 100 µM (inactive) |  |  | > 100 µM (inactive) |  | > 100 µM (inactive) | > 100 µM (inactive) |  |
| Cc1ccc(C2=C(C#N)C(N)OC3=C2COc2ccccc23)cc1 (stereo unspecified) |  | > 100 µM (inactive) | 27 µM (inactive) | 15.6 µM (inactive) | 17.2 µM (inactive) | 18.6 µM (inactive) | 19.5 µM (inactive) | 17.6 µM (inactive) | > 100 µM (inactive) | 63 µM (inactive) |  | 4.85 µM (inactive) | > 100 µM (inactive) | 31.8 µM (inactive) | 51.9 µM (inactive) | > 100 µM (inactive) | 30.3 µM (inactive) | > 100 µM (inactive) |  |  |
| CN1C[C@H]2[C@@H](C1=O)[C@H](c1ccc([N+](=O)[O-])cc1)ON2C | > 100 µM (inactive) | > 100 µM (inactive) |  | > 100 µM (inactive) | > 100 µM (inactive) | > 100 µM (inactive) | > 100 µM (inactive) | > 100 µM (inactive) | > 100 µM (inactive) | > 100 µM (inactive) | > 100 µM (inactive) | > 100 µM (inactive) | > 100 µM (inactive) | > 100 µM (inactive) | > 100 µM (inactive) | > 100 µM (inactive) | > 100 µM (inactive) |  |  |  |
| CCOP(=O)(COCCn1nc(Br)c(=O)[nH]c1=O)OCC | > 100 µM (inactive) | > 100 µM (inactive) | > 100 µM (inactive) | > 100 µM (inactive) |  | > 100 µM (inactive) | > 100 µM (inactive) | > 100 µM (inactive) | > 100 µM (inactive) | > 100 µM (inactive) | > 100 µM (inactive) |  | > 100 µM (inactive) | > 100 µM (inactive) | > 100 µM (inactive) | > 100 µM (inactive) | > 100 µM (inactive) | > 100 µM (inactive) | > 100 µM (inactive) |  |
| O=C(Nc1ccc(Cl)cc1)C(=O)C(C(=O)c1ccccc1-c1ccccc1)C1OC(=O)c2ccccc21 (stereo unspecified) | 14.2 µM (inactive) | 21.9 µM (inactive) | 21.3 µM (inactive) | 26.4 µM (inactive) | 21.4 µM (inactive) | 19.3 µM (inactive) | 14 µM (inactive) |  | 22.4 µM (inactive) | 14.5 µM (inactive) |  | 23.1 µM (inactive) | 20 µM (inactive) | 27 µM (inactive) |  | 26.9 µM (inactive) |  | 17.3 µM (inactive) | 11.6 µM (inactive) | > 100 µM (inactive) |
| CC(=O)OC[C@H]1[C@@H]2C(CC[C@]13CO3)OC(=O)CC(C)[C@]2(C)CCc1ccoc1 (stereo partly specified) | > 100 µM (inactive) | > 100 µM (inactive) | > 100 µM (inactive) | > 100 µM (inactive) | > 100 µM (inactive) | > 100 µM (inactive) | > 100 µM (inactive) | > 100 µM (inactive) | > 100 µM (inactive) | > 100 µM (inactive) | > 100 µM (inactive) | > 100 µM (inactive) | > 100 µM (inactive) | > 100 µM (inactive) | > 100 µM (inactive) |  | > 100 µM (inactive) | > 100 µM (inactive) | > 100 µM (inactive) |  |
| O=C(N/C=C1\C(=O)Oc2ccccc2C1=O)NC1CCCCC1 |  | 69.7 µM (inactive) | 41.2 µM (inactive) | 68.4 µM (inactive) | > 100 µM (inactive) | 39.7 µM (inactive) |  |  | 98.4 µM (inactive) | > 100 µM (inactive) |  | > 100 µM (inactive) | 50.2 µM (inactive) | 18.5 µM (inactive) |  | > 100 µM (inactive) |  |  | 19.9 µM (inactive) | 22.9 µM (inactive) |
| Cc1ccc(C)c(NC(=O)C(=O)C(C(=O)c2ccc3ccccc3c2)C2OC(=O)c3ccccc32)c1 (stereo unspecified) | 10 µM (inactive) | 15.5 µM (inactive) | 3.57 µM (inactive) | 20.2 µM (inactive) | 19.2 µM (inactive) | 15.7 µM (inactive) | 4.19 µM (inactive) |  | 11.2 µM (inactive) | 17.2 µM (inactive) |  | 28.1 µM (inactive) | 14.6 µM (inactive) | 26.1 µM (inactive) |  | 22.2 µM (inactive) |  | 14.2 µM (inactive) | 2.97 µM (inactive) | 17.9 µM (inactive) |
| CCOC(=O)c1c(NC(=O)Nc2ccccc2)c(C(N)=O)c2n1CCCCC2 |  | > 100 µM (inactive) | > 100 µM (inactive) | > 100 µM (inactive) | > 100 µM (inactive) |  | > 100 µM (inactive) | > 100 µM (inactive) | > 100 µM (inactive) | > 100 µM (inactive) | > 100 µM (inactive) | > 100 µM (inactive) | > 100 µM (inactive) | > 100 µM (inactive) | > 100 µM (inactive) | > 100 µM (inactive) | > 100 µM (inactive) | > 100 µM (inactive) | > 100 µM (inactive) |  |
| O=S(=O)(O)c1ccc(/N=N\c2ccc(/N=N\c3ccc(/C=C/c4ccc(/N=[N+](/[O-])c5ccc(/C=C/c6ccc(/N=N/c7ccc(/N=N\c8ccc(S(=O)(=O)O)cc8)cc7)cc6S(=O)(=O)O)c(S(=O)(=O)O)c5)cc4S(=O)(=O)O)c(S(=O)(=O)O)c3)cc2)cc1 | 86.3 µM (inactive) | > 100 µM (inactive) | > 100 µM (inactive) | > 100 µM (inactive) |  | > 100 µM (inactive) | > 100 µM (inactive) |  | > 100 µM (inactive) | > 100 µM (inactive) |  | > 100 µM (inactive) |  | > 100 µM (inactive) |  | > 100 µM (inactive) | > 100 µM (inactive) | > 100 µM (inactive) | > 100 µM (inactive) |  |
| CC(c1ccccc1)/[N+]([O-])=C/c1ccccc1 (stereo unspecified) | > 100 µM (inactive) | > 100 µM (inactive) | > 100 µM (inactive) | > 100 µM (inactive) | > 100 µM (inactive) |  | > 100 µM (inactive) |  | > 100 µM (inactive) |  |  | > 100 µM (inactive) |  | > 100 µM (inactive) |  | > 100 µM (inactive) |  | > 100 µM (inactive) | > 100 µM (inactive) | > 100 µM (inactive) |
| CCN1c2ccccc2NC(=S)c2c(-c3ccccc3)n[nH]c21 | 21 µM (inactive) | 48.2 µM (inactive) | 27.4 µM (inactive) |  | 48.4 µM (inactive) | 43.5 µM (inactive) | 20.9 µM (inactive) | 39.9 µM (inactive) | 27 µM (inactive) | 20.3 µM (inactive) | 75.5 µM (inactive) | 42.7 µM (inactive) | 31.6 µM (inactive) | 43.8 µM (inactive) | 18.4 µM (inactive) | 16.1 µM (inactive) | 23.1 µM (inactive) | 31.7 µM (inactive) | 27.7 µM (inactive) |  |
